Test results from US4973675A, “Hybrid nitrosoureidoanthracyclines having antitumor activity” (University of Tennessee Research Center, priority 1989, dated 1990).
pIC50: −log10 of the molar value. “Also recorded” adds a separate entry of the source. Read-outs that look alike come from different tables or passages of the source.

How the values were obtained:
[1] = test system: murine L1210 lymphocytes; test: DNA alkaline elution filter assay, DNA damage in murine L1210 lymphocytes; type: cell-based; settings: L1210
Source text: (§1) By means of the DNA alkaline elution filter assay technique, it is possible to assess the nature of damage induced in DNA by exposure to drugs and other agents. Depending on the assay conditions, DNA lesions can be quantified as direct strand breaks, DNA-DNA interstrand crosslinks, and protein-associated strand breaks and crosslinks. The action of akylating-type drugs on DNA typically results in a predominant formation of direct DNA single-strand breaks and DNA-DNA crosslinks. DNA intercalating agents show a preponderance of protein-associated DNA damage, detectable as protein-associated single-strand breaks and DNA-protein crosslinks.
(§2) The nature of nitrosoureidoanthracycline-induced DNA damage in murine L1210 and human CLL lymphocytes was assessed by means of the alkaline elution filter technique. Murine L1210 leukemic lymphocytes, like P388/S lymphocytes, are known to contain high levels of topoisomerase II.
(§3) *All concentrations 1 μM, 1hr incubation. Each entry represents the
(§4) mean of at least two experiments, frequency per 10^6 nucleotides;
(§5) statistically significant increase above background underlined. DB, direc
(§6) (nonenzymatic) DNA breaks; PAB, proteinassociated DNA cleavage; DDCL,
(§7) interstrand DNA crosslinks; DPCL, DNAprotein crosslinks.

[2] = Chemical stability / autodegradation to oxazolidinone (HPLC); type: physicochemical
Source text: FIGS. 2A and 2B are reproductions of HPLC printouts showing autodegration of N-2-chloroethylnitrosoureidoadriamycin.
Again, depending upon the specific compound, similar results were seen when compounds were exposed to aqueous media or even maintained in the dry state in a vacuum desiccator. Of importance, all daunorubicin urea and nitrosourea products, regardless of the specific alkyl or aryl substituent, afforded the same anthracycline degradation product; similarly, all adriamycin ureas and nitrosoureas afforded the same other degradation material.
Epirubicin (4'-epiadriamycin) is an example of such a starting material.

[3] = test system: DNA topoisomerase II; test: Drug-stimulated topoisomerase II-mediated DNA cleavage assay (end-labeled PMC41 DNA); type: biochemical; settings: for enhancement of topoisomerase II-mediated DNA cleavage: 625-fold concentration range; for DNA topoisomerase II-inhibitory and alkylating activity: summary of biochemical studies
Source text: FIGS. 5A and 5B are a photographic reproduction of the results of drug-stimulated topoisomerase II-mediated DNA cleavage assays performed on various compounds, including compounds of the present invention.
DNA intercalation is a necessary but not a sufficient requirement for DNA topoisomerase II-mediated DNA cleavage. Accordingly, determination of drug-induced enzyme inhibition requires direct assay with isolated topoisomerase II. These assays involve determination of drug-enhanced topoisomerase II-mediated cleavage of PMC41 DNA appropriately end-labeled with [α-^32 P]dATP. As better seen in FIG. 5B, lane B, purified topoisomerase II, under the assay conditions, causes fragmentation of the DNA (background cleavage), as indicated by the radioautographic appearance of bands of cleaved DNA having differing mass values.

[4] = Solubility in water or saline; type: physicochemical
Method: Accordingly, the compounds are formulated for administration by dissolving the compound in a pharmaceutically acceptable non-toxic carrier which contains a surfactant. The present inventors employ a formulation of 10% Cremaphor EL (a polyhydroxylated castor oil derivative) available from BASF Chemicals, 10% ethanol and 80% aqueous media (sterile water or saline solution). That quantity of the compound desired for establishing an effective dose is dissolved in a 1:1 mixture of Cremaphor EL and ethanol. Thereafter, sufficient aqueous medium is added with stirring to develop a final formulation containing 80% aqueous medium. This formulation is administered parenterally.

[5] = test system: human CEM leukemic lymphocytes; test: Growth inhibition of human CEM leukemic lymphocyte suspension cultures, 48 h continuous drug exposure (ID50); type: cell-based; settings: for growth inhibitory activity: CEM in vitro; for pIC50: Homo sapiens, Lymphocyte, CEM, 48 hr continuous drug exposure (Table 2), read-out: ID50 (the source's name)
Method: (§8) Culture and bioassay conditions were as described in Cancer Chemotherapy Pharmacology 20:277 (1987) "Comparative Effects of Adriamycin and DNA-nonbinding Analogues on DNA, RNA, and Protein Synthesis in Vitro", Israel et al., except that cell counts were determined by hemocytometer rather than by automated cell counting.

[6] = test system: murine L1210 leukemia cells; test: Clonogenic assay with cultured murine L1210 leukemia cells, 1 h drug exposure (LD90); type: cell-based; settings: for clonogenic cell kill: L1210, 1 hour exposure; for IC90: Mus musculus, L1210, 1 hr drug exposure, read-out: L1210 LD90 (dose killing 90% of clonogens)
Method: as §8
+Dose killing 90% of clonogens, 1hr. drug exposure.

[7] = test system: plasmid PC15 supercoiled DNA; test: DNA unwinding assay (interference with DNA topoisomerase I-mediated unwinding; drug-DNA intercalation); type: biochemical
Source text: DNA unwinding assays were used to measure the ability of a test drug to interfere with DNA topoisomerase I-mediated unwinding of plasmid PC15 supercoiled DNA. DNA topoisomerase I controls the topology of double-stranded DNA and is itself not inhibited by DNA intercalating agents. Rather, intercalating agents cause distortion of the torsional angle between adjacent DNA strand components and thereby interfere with the ability of topoisomerase I to convert supercoiled DNA into relaxed forms. Accordingly, this assay is taken as the definitive test of drug-DNA intercalation.
Drugs were tested at 4 concentrations over a 125-fold concentration range. […] These compounds are 2-chloroethylurea derivatives of daunorubicin and adriamycin, respectively (i.e. not nitrosoureas, but chemical intermediates from which the nitrosoureas were derived).

[8] = test system: human CLL lymphocytes; test: DNA alkaline elution filter assay, DNA damage in human CLL lymphocytes; type: cell-based; settings: for DD-CL, interstrand DNA crosslinks / DP-CL, DNA-protein crosslinks: CLL, 1 μM, 1 hr incubation
Source text: as §1, §2, §3, §4, §5, §6, §7
B-cell type lymphocytes freshly obtained from patients with chronic lymphocytic leukemia (CLL) show undetectable levels of topoisomerase II.

[9] = test system: murine P388 leukemia; test: In vivo antitumor activity vs. murine P388 (P388/S) leukemia; design: species or system murine (B6D2F1 males); settings: for Long-term survivors / Median increase in lifespan / Median survival / Net mean percent weight change, day 7 / Range of deaths (dying animals): ip
Source text: Initial studies utilized a multiple dose schedule, with drug administered once daily on days 1, 2, 3 and 4. […] The marked activity of AD 312 in this system has been confirmed in multiple separate experiments.
Additional studies were done with AD 312 vs. murine P388/S under more demanding conditions of assay.
^a Summary results of 4 separate experiments. B6D2F1 males; 1 ×

COc1cccc2c1C(=O)c1c(O)c3c(c(O)c1C2=O)C[C@@](O)(C(=O)CO)C[C@@H]3O[C@H]1C[C@H](NC(=O)N(CCCl)N=O)[C@@H](O)[C@H](C)O1 [AD 392, 2-chloroethylnitrosoureidoepirubicin]
pattern of DNA damage [1]: pattern of DNA damage consistent with both topoisomerase II inhibition and DNA-alkylatingaction | chemical stability / tendency to decompose to oxazolidinone ([2]; relative to adriamycin-derived products): improved chemical stability | enhancement of topoisomerase II-mediated DNA cleavage [3]: no saturation of background cleavage | DNA topoisomerase II-inhibitory and alkylating activity [3]: clearly establish the DNA topoisomerase II-inhibitory activity and alkylating activity | solubility ([4]; water or saline solution): essentially insoluble in water or saline solution | solubility ([4]; water, of the order of, read-out: solubility in water): < 25 µg/mL | potency compared to adriamycin (more potent) [5]: 10 fold | growth inhibitory activity [5]: almost identical in vitro biological properties; also recorded: moderate to marked growth inhibitory activity | pIC50 [5]: 8.30 | clonogenic cell kill [6]: essentially equipotent | IC90 [6]: 530 nM

COc1cccc2c1C(=O)c1c(O)c3c(c(O)c1C2=O)C[C@@](O)(C(=O)CO)C[C@@H]3O[C@H]1C[C@H](NC(=O)N(CCCl)N=O)[C@H](O)[C@H](C)O1 [AD 347, 2-chloroethylnitrosoureidoadriamycin]
pattern of DNA damage [1]: pattern of DNA damage consistent with both topoisomerase II inhibition and DNA-alkylatingaction | relative strength of drug-DNA intercalation (arbitrary scale) ([7]; 0 = no intercalation, 9 = very strong intercalation): 8 | interference with topoisomerase I-mediated conversion of supercoiled DNA / intercalation ([7]; 4 concentrations, 125-fold range): the ability of these compounds to intercalate, a prerequisite for topoisomerase II inhibition, is clearly established | autodegradation ([2]; HPLC, chloroform-methanol, overnight in the cold where stated): a second signal was clearly evident | enhancement of topoisomerase II-mediated DNA cleavage [3]: no saturation of background cleavage | DNA topoisomerase II-inhibitory and alkylating activity [3]: clearly establish the DNA topoisomerase II-inhibitory activity and alkylating activity | potency compared to adriamycin (more potent) [5]: 10 fold | growth inhibitory activity [5]: almost identical in vitro biological properties; also recorded: moderate to marked growth inhibitory activity | pIC50 [5]: 8.30 | pattern of DNA damage ([8]; CLL B-cell lymphocytes): some level of protein-associated DNA damage in these cells, but also affords significant levels of alkylation-type damage, seen as direct strand breaks and, with increasing time, DNA interstrand crosslinks | DD-CL, interstrand DNA crosslinks ([8]; 0 hr after treatment): -0.18 frequency per 10^6 nucleotides | DP-CL, DNA-protein crosslinks ([8]; 0 hr after treatment): 0.16 frequency per 10^6 nucleotides | DD-CL, interstrand DNA crosslinks ([8]; 1 hr after treatment): -0.04 frequency per 10^6 nucleotides | DP-CL, DNA-protein crosslinks ([8]; 1 hr after treatment): 0.17 frequency per 10^6 nucleotides | DP-CL, DNA-protein crosslinks ([8]; 3 hr after treatment): 0.19 frequency per 10^6 nucleotides | clonogenic cell kill [6]: essentially equipotent | IC90 [6]: 580 nM | increase in life span ([9]; P388/S, 16.0 mg/kg/day×4): > 500% | survival at 60 days ([9]; P388/S, 16.0 mg/kg/day×4): 57% | Long-term survivors ([9]; 2.0 mg/kg qd 1-4 (Table 7)): 0/7 | Median increase in lifespan ([9]; 2.0 mg/kg qd 1-4 (Table 7)): +70% | Median survival ([9]; 2.0 mg/kg qd 1-4 (Table 7)): 17 days | Net mean percent weight change, day 7 ([9]; 2.0 mg/kg qd 1-4 (Table 7)): +8% | Range of deaths (dying animals) ([9]; 2.0 mg/kg qd 1-4 (Table 7)): 16 to 18 days | Long-term survivors ([9]; 4.0 mg/kg qd 1-4 (Table 7)): 0/7 | Median increase in lifespan ([9]; 4.0 mg/kg qd 1-4 (Table 7)): +90% | Median survival ([9]; 4.0 mg/kg qd 1-4 (Table 7)): 19 days | Net mean percent weight change, day 7 ([9]; 4.0 mg/kg qd 1-4 (Table 7)): +2% | Range of deaths (dying animals) ([9]; 4.0 mg/kg qd 1-4 (Table 7)): 18 to 21 days | Long-term survivors ([9]; 8.0 mg/kg qd 1-4): 0/7 | Median increase in lifespan ([9]; 8.0 mg/kg qd 1-4): +120% | Median survival ([9]; 8.0 mg/kg qd 1-4): 22 days | Net mean percent weight change, day 7 ([9]; 8.0 mg/kg qd 1-4): +2% | Range of deaths (dying animals) ([9]; 8.0 mg/kg qd 1-4): 19 to 24 days | Median increase in lifespan ([9]; 12.0 mg/kg qd 1-4): +160% | Median survival ([9]; 12.0 mg/kg qd 1-4): 26 days | Net mean percent weight change, day 7 ([9]; 12.0 mg/kg qd 1-4): +2% | Range of deaths (dying animals) ([9]; 12.0 mg/kg qd 1-4): 22 to 37 days | Long-term survivors ([9]; 12.0 mg/kg qd 1-4, sacrifice day 60): 2/7 | Median increase in lifespan ([9]; 16.0 mg/kg qd 1-4): > +500% | Net mean percent weight change, day 7 ([9]; 16.0 mg/kg qd 1-4): -3% | Range of deaths (dying animals) ([9]; 16.0 mg/kg qd 1-4): 26 to 31 days | Long-term survivors ([9]; 16.0 mg/kg qd 1-4, sacrifice day 60): 4/7
